Data on one molecule can be found in patent publication US20090143471A1, “Process for the Atomization of Ioxilan” (GUERBET, priority 2006, published 2009).

A short description of the data set: immediate solubility in water. The class given is physicochemical. As to conditions: ambient or moderate temperature (typically from 20 to 40° C.). On the procedure:
Another disadvantage of the prior process by crystallization was that, in order to obtain an appropriate concentration of active principle in the contrast agent, the dissolution of the crystalline compound B1 (solid crystalline ioxilan, denoted B1; compound B of FIG. 1 is compound B1) required heating at high temperature (80° C.). This is because the immediate solubility of B1 in water at ambient or moderate temperature (typically from 20 to 40° C.) was of the order of 50 mg of iodine/ml.
The atomized compound B2 is soluble at ambient or moderate temperature. It is possible, starting from the compound B2, to obtain an appropriate pharmaceutical solution without needing to heat at high temperature. The immediate solubility of B2 in water at ambient or moderate temperature, of the order of at least 500 mg of iodine/ml and typically of approximately 500 mg of iodine/ml, makes it possible to obtain an injected contrast agent having a concentration of 350 to 450 mg of iodine/ml, for example 350, 380 or 400 mg of iodine/ml.

Molecules are shown by their SMILES.

For the molecule `CC(=O)N(CC(O)CO)c1c(I)c(C(=O)NCCO)c(I)c(C(=O)NCC(O)CO)c1I` (stereo not shown) [B1, 5-[N-(2,3-dihydroxypropyl)acetamido]-2,4,6-triiodo-N-(2,3-dihydroxypropyl)-N′-(2-hydroxyethyl)isophthalamide], the “immediate solubility in water” value is listed as ~50 mg of iodine/ml.
